Assay results as given in US20060252766A1, “Methods using a combination of 3-heteroaryl-2-indolinone and a cyclooxygenase-2 inhibitor for the treatment of neoplasia” (PFIZER INC, priority 2002, published 2006).

How the values were obtained:
[1] = tested on: HUV-EC-C cells (VEGF); test: HUV-EC-C assay, [3H] thymidine incorporation, VEGF; type: cell-based, human; details: Mitogenesis in endothelial cells
[2] = tested on: HUV-EC-C cells (a-FGF); test: HUV-EC-C assay, [3H] thymidine incorporation, a-FGF; type: cell-based, human; details: Mitogenesis in endothelial cells
Procedure: The following protocol may also be used to measure the composition's activity: • Day 0 • 1. […] After cells have detached from the flask, add an equal volume of assay medium and transfer to a 50 ml sterile centrifuge tube (Fisher Scientific; catalogue no. 05-539-6). • 2. Wash the cells with about 35 ml assay medium in the 50 ml sterile centrifuge tube by adding the assay medium, centrifuge for 10 minutes at approximately 200×g, aspirate the supernatant, and resuspend with 35 ml D-PBS. Repeat the wash two more times with D-PBS, resuspend the cells in about 1 ml assay medium/15 cm^2 of tissue culture flask. Assay medium consists of F12K medium (Gibco BRL; catalogue no. 21127-014)+0.5% heat-inactivated fetal bovine serum. Count the cells with a Coulter Counter.RTM.v Coulter Electronics, Inc.) and add assay medium to the cells to obtain a concentration of 0.8-1.0×10^5 cells/ml. • 3. Add cells to 96-well flat-bottom plates at 100 μl/well or 0.8-1.0×10^4 cells/well; incubate about 24 h at 37° C., 5% CO2. Day 1 • 1. Make up two-fold drug titrations in separate 96-well plates, generally 50 μM on down to 0 μM. Use the same assay medium as mentioned in day 0, step 2 above. Titrations are made by adding […] of drug at 200 μM (4× the final well concentration) to the top well of a particular plate column. Since the stock drug concentration is usually 20 mM in DMSO, the 200 μM drug concentration contains 2% DMSO. Therefore, diluent made up to 2% DMSO in assay medium (F12K+0.5% fetal bovine serum) is used as diluent for the drug titrations in order to dilute the drug but keep the DMSO concentration constant. Add this diluent to the remaining wells in the column at 60 μl/well. Take 60 μl from the 120 μl of 200 μM drug dilution in the top well of the column and mix with the 60 μl in the second well of the column. Take 60 μl from this well and mix with the 60 μl in the third well of the column, and so on until two-fold titrations are completed. When the next-to-the-last well is mixed, take 60 μl of the 120 μl in this well and discard it. Leave the last well with 60 μl of DMSO/media diluent as a non-drug-containing control. Make 9 columns of titrated drug, enough for triplicate wells each for 1) VEGF (obtained from Pepro Tech Inc., catalogue no. 100-200, 2) endothelial cell growth factor (ECGF) (also known as acidic fibroblast growth factor, or aFGF) (obtained from Boehringer Mannheim Biochemica, catalogue no. 1439 600), and assay media control. ECGF comes as a preparation with sodium heparin. • 2. Transfer 50 μl/well of the drug dilutions to the 96-well assay plates containing the 0.8-1.0×10^4 cells/100 μl/well of the HUV-EC-C cells from day 0 and […] incubate ~2 h at 37° C., 5% CO2. • 3. In triplicate, add 50 μl/well of 80 ng/ml VEGF, 20 ng/ml ECGF, or media control to each drug condition. As with the drugs, the growth factor concentrations are 4× the desired final concentration. Use the assay media from day 0 step 2 to make the concentrations of growth factors. Incubate approximately 24 hours at 37° C., 5% CO2. Each well will have 50 μl drug dilution, 50 μl growth factor or media, and 100 ul cells,=200 ul/well total. Thus the 4× concentrations of drugs and growth factors become 1× once everything has been added to the wells. Day 2 • 1. Add ^3H-thymidine (Amersham; catalogue no. TRK-686) at 1 μCi/well (10 μl/well of 100 μCi/ml solution made up in RPMI media+10% heat-inactivated fetal bovine serum) and incubate about 24 h at 37° C., 5% CO2. • Note: ^3H-thymidine is made up in RPMI media because all of the other applications for which we use the ^3H-thymidine involve experiments done in RPMI. The media difference at this step is probably not significant. RPMI was obtained from Gibco BRL, catalogue no. 11875-051. Day 3 • 1. Freeze plates overnight at −20° C. Day 4 • 1. […]

[3] = tested on: 3T3/E/H+TGF-a(T) cells; test: 3T3/E/H+TGF-a(T) cell growth SRB assay; type: cell-based; details: SRB readout
Procedure: The SRB assays may be used to measure the effects of substances or cell growth. The assays are carried out as follows:
Trypsinize cells as usual. Transfer 100 μl of cell suspension to 10 ml of isotone. Count cells with the Coulter Counter. • 2. Dilute cells in growth medium to 60,000 cells/ml. Transfer 100 μl of cells to each well in a 96-well flat bottom plate to give 6000 cells/well. • 3. […] Gently shake plates to allow for uniform attachment of the cells. • 5. Incubate the plates at 37° C. in a 10% CO2 incubator. Day 1: Addition of Compound: • This part of assay is carried out in a laminar flow hood. • 1. In 96 well-round bottom plate, add 125 μl of growth medium to columns 3-11. […] At this dilution, the concentration of DMSO is 0.4% for a 2× solution or 0.2% for 1× solution on the cells. […] Transfer the 2× starting compound solution to quadruplicate wells in column 12 of the 96-well round bottom plate. Do 1:2 serial dilutions across the plate from right to left by transferring 125 μl from column 12 to column 11, column 11 to 10 and so on. Transfer 100 μl of compound dilutions onto 100 μl medium on cells in corresponding wells of 96-well flat bottom plate. Total volume per well should be 200 μl. • 4. For vehicle control, prepare a 2× solution of DMSO at 0.4% DMSO in growth medium. […] Read plates on Dynatech ELISA Plate Reader at 570 nm with reference at 630 nm. […]

[4] = molecular target: PDGFR (Homo sapiens, UniProt P09619); test: PDGF-R ELISA
Procedure: All cell culture media, glutamine, and fetal bovine serum were purchased from Gibco Life Technologies (Grand Island, N.Y.) unless otherwise specified. […] All cell lines were routinely subcultured twice a week and were negative for mycoplasma as determined by the Mycotect method (Gibco).
For ELISA assays, cells (U1242, obtained from Joseph Schlessinger, NYU) were grown to 80-90% confluency in growth medium (MEM with 10% FBS, NEAA, 1 mM NaPyr and 2 mM GLN) and seeded in 96-well tissue culture plates in 0.5% serum at 25,000 to 30,000 cells per well. […] Lysates were incubated with shaking for 1 hour at room temperature. The plates were washed with TBST four times and then incubated with polyclonal anti-phosphotyrosine antibody at room temperature for 30 minutes. Excess anti-phosphotyrosine antibody was removed by rinsing the plate with TBST four times. Goat anti-rabbit IgG antibody was added to the ELISA plate for 30 min at room temperature followed by rinsing with TBST four more times. […] Absorbance at 410 nm with a reference wavelength of 630 nm was recorded about 15 to 30 min after ABTS addition.

[5] = tested on: 3T3/PDGFR+PDGF(T) cells; test: 3T3/PDGF-βR/PDGF-BB(T) cell growth SRB assay; type: cell-based; details: tumor-derived, SRB readout
Procedure: Cell Line and Growth Medium:
• 3T3/PDGF-βR/PDGF-BB(T) (NIH 3T3 clone 7 cells expressing PDGFβ-receptor and PDGF-BB, from tumors resected from athymic mice) 2% calf serum/DMEM+2 mM glutamine Protocol: Day 0: Cell Plating: • This part of assay is carried out in a laminar flow hood. • 1. Trypsinize cells as usual. Transfer 200 μl of cell suspension to 10 ml of isotone. Count cells on the Coulter Counter. • 2. Dilute cells in growth medium to 60,000 cells/ml. Transfer 100 μl of cells to each well in a 96-well flat bottom plate to give 6000 cells/well. • 3. Allow half of plate (4 rows) for each compound and quadruplicate wells for each compound concentration, a set of 4 wells for medium control and 4 wells for DMSO control. • 4. Gently shake plates to allow for uniform attachment of the cells to the plate. • 5. Incubate the plates at 37° C. in a 10% CO2 incubator. • Day 1: Addition of Compound: same as for Assay 1. • Day 5: Development of Assay: same as for Assay 1.
3T3/E/H+TGF-α(T): NIH 3T3 cells expressing EGFR/HER2 chimera and TGF-α, tumor-derived 3T3/EGFR+TGF-α(T): NIH 3T3 cells expressing EGFR and TGF-α, tumor-derived 3T3/PDGFR+PDGF(T): NIH 3T3 cells expressing PDGF-βR and PDGF-ββ, tumor-derived SMC: human smooth muscle cells from Clonetics

[6] = molecular target: T1, FLK-1 receptor (Mus musculus, UniProt P35918); test: FLK-1 ELISA in FLK-1/NIH3T3 cells; type: cell-based
T1 construct: expressed in transfected cells; host or cells: NIH3T3 C7#3 cells
Procedure: An ELISA assay was conducted to measure the kinase activity of the FLK-1 receptor and more specifically, the inhibition or activation of protein tyrosine kinase activity on the FLK-1 receptor. Specifically, the following assay was conducted to measure kinase activity of the FLK-1 receptor in FLK-1/NIH3T3 cells.
Coat Corning 96-well elisa plates with 1.0 μg per well Cappel Anti-rabbit IgG antibody in 0.1M Na2 CO3 pH 9.6. Bring final volume to 150 μl per well. Coat plates overnight at 4° C. Plates can be kept up to two weeks when stored at 4° C. • 2. Grow cells in Growth media(DMEM, supplemental with 2.0 mM L-Glutamine, 10% FBS) in suitable culture dishes until confluent at 37° C., 5% CO2. • 3. […] Grow cells at least one day at 37° C., 5% CO2. • 5. Wash cells with D-PBS 1×. • 6. Add 200 μl/well of starvation media (DMEM, 2.0 mM I-Glutamine, 0.1% FBS). Incubate overnight at 37° C., 5% CO2. • 7. Dilute Compounds/Extracts 1:20 in polypropylene 96 well plates using starvation media. Dilute dimethylsulfoxide 1:20 for use in control wells. • 8. Remove starvation media from 96 well cell culture plates and add 162 μl of fresh starvation media to each well. • 9. Add 18 μl of 1:20 diluted Compound/Extract dilution (from step 7) to each well plus the 1:20 dimethylsulfoxide dilution to the control wells (+/−VEGF), for a final dilution of 1:200 after cell stimulation. Final dimethylsulfoxide is 0.5%. […]

[7] = molecular target: FGFR (Mus musculus, UniProt P16092); test: FGF ligand BrdU incorporation in 3T3/EGFR cells; type: cell-based; details: Mitogenesis in 3T3/EGFR cells
[8] = tested on: PDGFR; test: PDGF-induced BrdU incorporation assay in 3T3/EGFR cells; type: cell-based; details: Mitogenesis in 3T3/EGFR cells, read-out: PDGFR PDGF Ligand IC50
Procedure: Protocol • (1) 3T3 engineered cell line: 3T3/EGFRc7. • (2) Cells are seeded at 8000 cells/well in DMEM, 10% CS, 2 mM Gin in a 96 well plate. […] The negative control wells receive serum free DMEM with 0.1% BSA only; the positive control cells receive the ligand (PDGF) but no test compound. […] FixDenat solution is added (50 μl/well) and the plates are incubated at room temperature for 45 minutes on a plate shaker. • (7) The FixDenat solution is thoroughly removed by decanting and tapping the inverted plate on a paper towel. Milk is added (5% dehydrated milk in PBS, 200 μl/well) as a blocking solution and the plate is incubated for 30 minutes at room temperature on a plate shaker. • (8) The blocking solution is removed by decanting and the wells are washed once with PBS. Anti-BrdU-POD solution (1:100 dilution in PBS, 1% BSA) is added (100 μl/well) and the plate is incubated for 90 minutes at room temperature on a plate shaker. • (9) The antibody conjugate is thoroughly removed by decanting and rinsing the wells 5 times with PBS, and the plate is dried by inverting and tapping on a paper towel. • (10) TMB substrate solution is added (100 μl/well) and incubated for 20 minutes at room temperature on a plate shaker until color development is sufficient for photometric detection. • (11) The absorbance of the samples is measured at 410 nm (in “dual wavelength” mode with a filter reading at 490 nm, as a reference wavelength) on a Dynatech ELISA plate reader.

FGFR, sequence (P16092 22-822, change not shown): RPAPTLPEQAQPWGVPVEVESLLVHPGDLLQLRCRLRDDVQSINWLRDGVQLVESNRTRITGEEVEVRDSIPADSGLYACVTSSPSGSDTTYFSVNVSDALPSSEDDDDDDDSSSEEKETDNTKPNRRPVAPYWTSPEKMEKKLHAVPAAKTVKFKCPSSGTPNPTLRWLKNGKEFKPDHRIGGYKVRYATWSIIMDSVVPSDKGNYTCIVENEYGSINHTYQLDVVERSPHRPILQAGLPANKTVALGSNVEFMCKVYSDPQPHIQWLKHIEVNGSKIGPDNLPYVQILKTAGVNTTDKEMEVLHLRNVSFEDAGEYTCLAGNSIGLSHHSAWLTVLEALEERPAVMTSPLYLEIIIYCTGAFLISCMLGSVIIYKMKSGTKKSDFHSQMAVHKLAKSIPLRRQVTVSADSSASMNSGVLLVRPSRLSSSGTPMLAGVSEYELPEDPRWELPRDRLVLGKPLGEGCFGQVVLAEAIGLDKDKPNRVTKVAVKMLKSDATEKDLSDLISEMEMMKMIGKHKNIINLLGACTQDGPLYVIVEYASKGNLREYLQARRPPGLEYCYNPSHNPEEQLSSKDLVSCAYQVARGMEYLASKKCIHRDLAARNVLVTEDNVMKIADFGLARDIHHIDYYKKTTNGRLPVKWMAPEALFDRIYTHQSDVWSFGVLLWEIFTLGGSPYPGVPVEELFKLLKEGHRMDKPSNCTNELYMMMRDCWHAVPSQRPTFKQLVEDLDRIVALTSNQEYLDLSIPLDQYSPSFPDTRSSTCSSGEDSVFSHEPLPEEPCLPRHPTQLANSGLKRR
PDGFR (Homo sapiens, UniProt P09619), sequence (P09619 33-1106): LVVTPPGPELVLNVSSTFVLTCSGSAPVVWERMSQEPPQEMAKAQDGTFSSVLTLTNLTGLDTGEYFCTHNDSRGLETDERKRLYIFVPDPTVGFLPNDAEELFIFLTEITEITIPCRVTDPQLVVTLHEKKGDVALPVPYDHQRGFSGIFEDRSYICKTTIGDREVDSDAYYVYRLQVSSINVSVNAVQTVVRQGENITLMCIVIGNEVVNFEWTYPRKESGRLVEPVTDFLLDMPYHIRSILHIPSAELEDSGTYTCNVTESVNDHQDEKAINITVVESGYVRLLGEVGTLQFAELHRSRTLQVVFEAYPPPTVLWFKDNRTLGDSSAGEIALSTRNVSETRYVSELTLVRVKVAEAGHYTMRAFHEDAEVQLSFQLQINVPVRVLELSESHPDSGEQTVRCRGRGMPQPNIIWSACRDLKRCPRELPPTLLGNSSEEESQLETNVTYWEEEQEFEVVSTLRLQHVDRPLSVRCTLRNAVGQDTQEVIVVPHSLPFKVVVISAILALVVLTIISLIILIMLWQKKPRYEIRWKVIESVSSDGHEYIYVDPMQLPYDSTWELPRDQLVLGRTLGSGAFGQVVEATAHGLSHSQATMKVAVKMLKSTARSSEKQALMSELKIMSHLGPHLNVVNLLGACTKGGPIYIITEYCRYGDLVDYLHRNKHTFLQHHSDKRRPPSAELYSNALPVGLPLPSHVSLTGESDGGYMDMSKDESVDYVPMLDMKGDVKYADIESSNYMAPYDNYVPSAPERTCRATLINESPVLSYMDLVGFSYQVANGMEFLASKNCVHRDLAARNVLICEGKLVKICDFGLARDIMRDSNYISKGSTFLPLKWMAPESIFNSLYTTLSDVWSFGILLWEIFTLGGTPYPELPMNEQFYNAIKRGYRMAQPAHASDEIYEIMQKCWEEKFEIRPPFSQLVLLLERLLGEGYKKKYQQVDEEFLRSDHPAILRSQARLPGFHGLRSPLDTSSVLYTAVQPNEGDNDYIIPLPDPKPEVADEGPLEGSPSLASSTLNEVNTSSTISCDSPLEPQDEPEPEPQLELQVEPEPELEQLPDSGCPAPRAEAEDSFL
T1 sequence (P35918 20-1345): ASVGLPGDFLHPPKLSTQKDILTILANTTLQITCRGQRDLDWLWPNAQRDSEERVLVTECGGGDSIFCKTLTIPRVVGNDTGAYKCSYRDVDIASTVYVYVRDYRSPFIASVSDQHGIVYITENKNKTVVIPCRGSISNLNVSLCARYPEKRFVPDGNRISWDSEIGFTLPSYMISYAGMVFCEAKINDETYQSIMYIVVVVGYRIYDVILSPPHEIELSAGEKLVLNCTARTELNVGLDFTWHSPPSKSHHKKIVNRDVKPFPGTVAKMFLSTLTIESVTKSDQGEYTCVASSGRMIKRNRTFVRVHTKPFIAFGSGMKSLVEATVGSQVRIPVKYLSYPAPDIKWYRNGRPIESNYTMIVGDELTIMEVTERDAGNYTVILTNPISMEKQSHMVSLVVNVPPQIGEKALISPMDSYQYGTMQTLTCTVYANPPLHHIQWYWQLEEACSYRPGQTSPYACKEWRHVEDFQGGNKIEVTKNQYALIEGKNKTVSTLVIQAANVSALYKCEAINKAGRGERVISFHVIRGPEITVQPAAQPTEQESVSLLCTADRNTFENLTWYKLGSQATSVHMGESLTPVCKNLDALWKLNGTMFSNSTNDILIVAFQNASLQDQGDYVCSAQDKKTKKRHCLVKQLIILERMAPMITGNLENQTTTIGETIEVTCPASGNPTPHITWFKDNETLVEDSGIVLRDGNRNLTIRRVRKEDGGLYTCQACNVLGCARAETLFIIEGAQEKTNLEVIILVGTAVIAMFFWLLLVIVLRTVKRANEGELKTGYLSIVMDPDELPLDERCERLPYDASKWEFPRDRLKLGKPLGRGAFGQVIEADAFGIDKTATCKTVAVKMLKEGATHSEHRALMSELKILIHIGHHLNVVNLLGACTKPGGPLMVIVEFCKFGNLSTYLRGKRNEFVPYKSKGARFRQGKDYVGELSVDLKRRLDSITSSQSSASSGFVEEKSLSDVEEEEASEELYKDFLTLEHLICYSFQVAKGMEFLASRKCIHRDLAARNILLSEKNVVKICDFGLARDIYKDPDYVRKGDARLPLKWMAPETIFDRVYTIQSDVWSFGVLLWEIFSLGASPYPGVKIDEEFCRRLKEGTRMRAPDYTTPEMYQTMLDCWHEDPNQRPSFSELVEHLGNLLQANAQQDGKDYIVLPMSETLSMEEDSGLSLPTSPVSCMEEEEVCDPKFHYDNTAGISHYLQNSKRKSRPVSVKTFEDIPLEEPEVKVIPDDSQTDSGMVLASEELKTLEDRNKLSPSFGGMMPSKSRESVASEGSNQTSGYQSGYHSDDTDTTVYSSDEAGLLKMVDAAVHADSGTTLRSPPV

| Compound | IC50 [1] [µM] | IC50 [2] [µM] | IC50 [4] [µM] | other results |
| --- | --- | --- | --- | --- |
| O=C1Nc2ccccc2C1=Cc1ccc(O)cc1Cl [SU4932, 3-(2-chloro-4-hydroxybenzylidenyl)-2-indolinone] | 2.5 | 45.2 |  |  |
| CN(C)c1ccc(C=C2C(=O)Nc3ccccc32)cc1 [SU4312, 3-(4-Dimethylaminobenzylidenyl)-2-indolinone] |  |  |  | IC50 [3]: 36 µM |
| O=CN1CCN(c2ccc(C=C3C(=O)Nc4ccccc43)cc2)CC1 [SU4984, 3-[4-(4-Formylpiperazin-1-yl)benzylidenyl]-2-indolinone] |  |  | 5.8 | IC50 [5]: 22.2 µM |
| 3-[(2-Sulphonylfuran-5-yl)methylene]-2-indolinone sodium salt [SU5428] |  |  |  | IC50 [6]: 8.6 µM |
| CC(=O)Nc1ccc(C=C2C(=O)Nc3ccccc32)cc1 [SU4799, 3-(4-acetamidobenzylidenyl)-2-indolinone] | 19.9 |  |  |  |
| CN(C)c1ccc(C=C2C(=O)N(C)c3ccccc32)cc1 [SU4952, 3-(4-Dimethylaminobenzylidenyl)-1-methyl-2-indolinone] | 25.6 | 19.3 |  |  |
| O=C1Nc2ccccc2C1=Cc1c[nH]cn1 [SU5473, 3-[(Imidazol-4-yl)methylene]-2-indolinone] |  |  | 14.2 | IC50 ([1]; Homo sapiens, HUVEC): 1.2 µM; IC50 [7]: 50 µM; IC50 [8]: 4 µM; IC50 ([2]; Homo sapiens, HUVEC): 14.1 µM |
| COc1cccc(C=C2C(=O)Nc3ccccc32)c1OC [SU4794, 3-(2,3-dimethoxybenzylidenyl)-2-indolinone] | 4.8 | 35.7 |  |  |
| CN1C(=O)C(=Cc2ccc(Br)cc2)c2ccccc21 [SU4956, 3-(4-Bromobenzylidenyl)-1-methyl-2-indolinone] | 8 | 13 |  |  |
| COc1ccc(OC)c(C=C2C(=O)Nc3ccccc32)c1 [SU4793, 3-(2,5-Dimethoxybenzylidenyl)-2-indolinone] | 6.6 | 3.4 |  |  |
| O=C1Nc2ccccc2C1=Cc1ccc(N2CCCC2)cc1 [SU5466, 3-[4-(Pyrrolidin-1-yl)benzylidenyl]-2-indolinone] |  |  | 86 | IC50 [7]: 15 µM; IC50 [8]: 18 µM |
| Cc1cc[nH]c1C=C1C(=O)Nc2ccccc21 [SU5404, 3-[(3-Methylpyrrol-2-yl)methylene]-2-indolinone] |  |  | 17 | IC50 [7]: 25 µM; IC50 [8]: 3 µM |
| CN1C(=O)C(=Cc2ccc(N3CCOCC3)cc2)c2ccccc21 [SU4982, 1-Methyl-3-[4-(morpholin-4-yl)benzylidenyl]-2-indolinone] | 46.1 | 27.3 |  |  |
